Data reported in PubChem BioAssay AID200 (DTP/NCI, 2004).
“And” between values parts separate entries of the source, which are not always exact repeats. Equal values may be shown once. Toxic doses and inconclusive results are not listed. Where a SMILES comes first, the peptide text is derived from it. [ ]: non-standard residue; d: D form. The star is where a group is joined. Nle = CCCC[CH](N)C(=O)O; Cbz = O=C(OCc1ccccc1)*; Bn = c1ccc(C*)cc1

Tested on: B6C3F1 mice, B16 melanoma ip, median survival T/C
Experiment: NCI In Vivo Anticancer Drug Screen. Data for tumor model B16 Melanoma (intraperitoneal) in B6C3F1 mice
Conditions: endpoint: median survival time, higher = longer survival
Summary of the method: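 Antitumor effect was judged in mice with transplanted tumors by dividing the treated group's survival measure by that of vehicle controls.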

[1] = dose: 100.0 mg/kg/injection, schedule: Q01DX009 (ip), vehicle: saline with Tween-80
[2] = dose: 200.0 mg/kg/injection, schedule: Q01DX009 (ip), vehicle: saline with Tween-80
[3] = dose: 400.0 mg/kg/injection, schedule: Q01DX009 (ip), vehicle: saline with Tween-80
[4] = dose: 12.5 mg/kg/injection, schedule: Q01DX009 (ip), vehicle: saline with Tween-80
[5] = dose: 25.0 mg/kg/injection, schedule: Q01DX009 (ip), vehicle: saline with Tween-80
[6] = dose: 50.0 mg/kg/injection, schedule: Q01DX009 (ip), vehicle: saline with Tween-80
[7] = dose: 12.5 mg/kg/injection, schedule: Q01DX009 (ip), vehicle: Klucel (hydroxypropylcellulose) (HPC)
[8] = dose: 6.25 mg/kg/injection, schedule: Q01DX009 (ip), vehicle: saline with Tween-80
[9] = dose: 0.25 mg/kg/injection, schedule: Q01DX009 (ip), vehicle: water
[10] = dose: 1.0 mg/kg/injection, schedule: Q01DX009 (ip), vehicle: water
[11] = dose: 2.0 mg/kg/injection, schedule: Q01DX009 (ip), vehicle: water
[12] = dose: 25.0 mg/kg/injection, schedule: Q01DX009 (ip), vehicle: Klucel (hydroxypropylcellulose) (HPC)
[13] = dose: 50.0 mg/kg/injection, schedule: Q01DX009 (ip), vehicle: Klucel (hydroxypropylcellulose) (HPC)
[14] = dose: 100.0 mg/kg/injection, schedule: Q01DX009 (ip), vehicle: Klucel (hydroxypropylcellulose) (HPC)
[15] = dose: 200.0 mg/kg/injection, schedule: Q01DX009 (ip), vehicle: Klucel (hydroxypropylcellulose) (HPC)
[16] = dose: 100.0 mg/kg/injection, schedule: Q01DX009 (ip), vehicle: saline
[17] = dose: 200.0 mg/kg/injection, schedule: Q01DX009 (ip), vehicle: saline
[18] = dose: 400.0 mg/kg/injection, schedule: Q01DX009 (ip), vehicle: saline

O=C(N/N=C/c1ccccc1O)c1cccc([N+](=O)[O-])c1
T/C [1]: 103 % of control
T/C [2]: 87 % of control
T/C [3]: 96 % of control

COc1cc([NH-])c([NH-])cc1OC.[Cl][Pt+2][Cl]
T/C (dose: 20.0 mg/kg/injection, schedule: Q01DX009 (ip), vehicle: saline with Tween-80): 100 % of control
T/C (dose: 40.0 mg/kg/injection, schedule: Q01DX009 (ip), vehicle: saline with Tween-80): 101 % of control
T/C (dose: 80.0 mg/kg/injection, schedule: Q01DX009 (ip), vehicle: saline with Tween-80): 112 % of control

O=C(Nc1ccccc1C(=O)O)c1cc([N+](=O)[O-])cc([N+](=O)[O-])c1
T/C [4]: 92 % of control
T/C [5]: 100 % of control
T/C [6]: 97 % of control
T/C [1]: 96 % of control

O=S(=O)(c1cccc(N=C=S)c1)c1cccc(N=C=S)c1
T/C (dose: 6.25 mg/kg/injection, schedule: Q01DX009 (ip), vehicle: Klucel (hydroxypropylcellulose) (HPC)): 109 % of control
T/C [7]: 94 % of control

CCC(=O)[O-].CCC(=O)[O-].CCC(=O)[O-].CCC(=O)[O-].O=S(=O)(O)O.[Re].[Re]
T/C (dose: 64.8 mg/kg/injection, schedule: Q01DX009 (ip), vehicle: suspension in saline): 93 % of control
T/C (dose: 108.0 mg/kg/injection, schedule: Q01DX009 (ip), vehicle: suspension in saline): 86 % of control
T/C (dose: 300.0 mg/kg/injection, schedule: Q01DX009 (ip), vehicle: suspension in saline): 86 % of control

COC(CCC(C)C1OC23CC(OC(=O)CC(C(C)O)OC(=O)CC(O)(O2)C(C)CC3(C)C)C1C)c1cccc(O)c1 (stereo not given)
T/C (dose: 12.5 micrograms/kg/injection, schedule: Q01DX009 (ip), vehicle: saline + Tween-80 + alcohol): 96 % of control
T/C (dose: 25.0 micrograms/kg/injection, schedule: Q01DX009 (ip), vehicle: saline + Tween-80 + alcohol): 97 % of control
T/C (dose: 50.0 micrograms/kg/injection, schedule: Q01DX009 (ip), vehicle: saline + Tween-80 + alcohol): 104 % of control
T/C (dose: 100.0 micrograms/kg/injection, schedule: Q01DX009 (ip), vehicle: saline + Tween-80 + alcohol): 102 % of control

CCCCC(=O)OCC1OC(n2cnc3c(=S)nc[nH]c32)C(OC(=O)CCCC)C1OC(=O)CCCC (stereo not given)
T/C [8]: 102 % of control
T/C [4]: 105 % of control
T/C [5]: 108 % of control
T/C [6]: 92 % of control

COc1cccc2c1C(=O)c1c(O)c3c(c(O)c1C2=O)C[C@@](O)(C(C)=O)C[C@@H]3OC1CC(N)C(O)C(C)O1 (stereo not given in full)
T/C (dose: 0.12 mg/kg/injection, schedule: Q01DX009 (ip), vehicle: water): 151 % of control
T/C [9]: 171 % of control
T/C (dose: 0.5 mg/kg/injection, schedule: Q01DX009 (ip), vehicle: water): 174 % of control and 186 % of control
T/C [10]: 154 % of control and 285 % of control
T/C (dose: 1.5 mg/kg/injection, schedule: Q01DX001 (ip), vehicle: water): 187 % of control
T/C [11]: 242 % of control and 96 % of control
T/C (dose: 3.0 mg/kg/injection, schedule: Q01DX001 (ip), vehicle: water): 218 % of control
T/C (dose: 6.0 mg/kg/injection, schedule: Q01DX001 (ip), vehicle: water): 122 % of control

CC(C)CC(NC(=O)C(CSCc1ccccc1)NC(=O)OCc1ccccc1)C(N)=O (stereo not given) (Cbz-Cys(Bn)-Leu-NH2; configuration not given here)
T/C [7]: 107 % of control
T/C [12]: 98 % of control
T/C [13]: 100 % of control

CCOC(=O)CNC(=O)Sc1ccc(C(C)(C)C)cc1
T/C [7]: 100 % of control
T/C [12]: 100 % of control
T/C [13]: 102 % of control
T/C [14]: 105 % of control
T/C [15]: 115 % of control

ClC1(Cl)Cc2ccccc21
T/C (dose: 18.0 mg/kg/injection, schedule: Q01DX009 (ip), vehicle: saline with Tween-80): 105 % of control
T/C [5]: 122 % of control
T/C (dose: 30.0 mg/kg/injection, schedule: Q01DX009 (ip), vehicle: saline with Tween-80): 107 % of control
T/C [6]: 99 % of control
T/C (dose: 83.33 mg/kg/injection, schedule: Q01DX009 (ip), vehicle: saline with Tween-80): 103 % of control
T/C (dose: 138.88 mg/kg/injection, schedule: Q01DX009 (ip), vehicle: saline with Tween-80): 100 % of control

CC1c2ccccc2CC(CCN(C)C)c2ccccc21 (stereo not given)
T/C [8]: 104 % of control
T/C [4]: 98 % of control
T/C [5]: 99 % of control
T/C [6]: 95 % of control

Nc1ccc(OC(=O)Oc2ccc(N)cc2)cc1
T/C [16]: 113 % of control
T/C [17]: 104 % of control
T/C [18]: 98 % of control

Nc1nc(-c2ccc(Cl)c([N+](=O)[O-])c2)c(Br)c(=O)[nH]1
T/C (dose: 18.25 mg/kg/injection, schedule: Q01DX009 (ip), vehicle: saline with Tween-80): 121 % of control
T/C (dose: 36.5 mg/kg/injection, schedule: Q01DX009 (ip), vehicle: saline with Tween-80): 118 % of control
T/C (dose: 73.0 mg/kg/injection, schedule: Q01DX009 (ip), vehicle: saline with Tween-80): 100 % of control
T/C (dose: 146.0 mg/kg/injection, schedule: Q01DX009 (ip), vehicle: saline with Tween-80): 100 % of control

NCC(=O)NC(Cc1ccc(O)cc1)C(=O)O (stereo not given) (HELM PEPTIDE1{G.[O=C(O)C(Cc1ccc(O)cc1)N[*:1]]}$$$$V2.0)
T/C [16]: 110 % of control
T/C [17]: 123 % of control

c1ccc(-c2cc3cc4ccccc4cn3c2)cc1
T/C [6]: 110 % of control
T/C [1]: 118 % of control
T/C [2]: 116 % of control
T/C [3]: 105 % of control
T/C (dose: 800.0 mg/kg/injection, schedule: Q01DX009 (ip), vehicle: saline with Tween-80): 108 % of control

CCCCC(NC(=O)OCc1ccccc1)C(=O)NC(C(=O)O)C(C)C (stereo not given) (Cbz-[Nle]-Val-OH; configuration not given here)
T/C [14]: 108 % of control
T/C [15]: 105 % of control

O=C(O)C1CCCN1C(=O)OCc1ccccc1 (stereo not given)
T/C [13]: 97 % of control
T/C [15]: 89 % of control

Oc1c(Cl)cc(Cl)cc1C=NCCSc1ccc(Cl)cc1
T/C [12]: 98 % of control and 102 % of control
T/C [13]: 92 % of control and 102 % of control
T/C [14]: 113 % of control and 93 % of control
T/C [15]: 92 % of control and 103 % of control

CONc1ccn(C2OC(CO)C(O)C2O)c(=O)n1 (stereo not given)
T/C (dose: 12.5 mg/kg/injection, schedule: Q01DX009 (ip), vehicle: saline): 92 % of control and 98 % of control
T/C (dose: 25.0 mg/kg/injection, schedule: Q01DX009 (ip), vehicle: saline): 101 % of control and 102 % of control
T/C (dose: 50.0 mg/kg/injection, schedule: Q01DX009 (ip), vehicle: saline): 103 % of control and 104 % of control
T/C [16]: 91 % of control and 106 % of control
T/C [17]: 113 % of control and 91 % of control
T/C [18]: 89 % of control and 94 % of control

Cc1cc(NCCCCCCCCNc2cc(C)nc3cc(N(C)C)ccc23)c2ccc(N(C)C)cc2n1
T/C (dose: 3.12 mg/kg/injection, schedule: Q01DX009 (ip), vehicle: distilled water + Tween-80): 105 % of control
T/C (dose: 6.25 mg/kg/injection, schedule: Q01DX009 (ip), vehicle: distilled water + Tween-80): 115 % of control
T/C (dose: 25.0 mg/kg/injection, schedule: Q01DX009 (ip), vehicle: distilled water + Tween-80): 121 % of control

N[C@@H](Cc1ccc(N(CCCl)CCCl)cc1)C(=O)O
T/C (dose: 0.25 mg/kg/injection, schedule: Q01DX009 (ip), vehicle: saline): 111 % of control and 124 % of control
T/C [9]: 124 % of control
T/C [10]: 183 % of control
T/C (dose: 2.0 mg/kg/injection, schedule: Q01DX009 (ip), vehicle: saline with Tween-80): 176 % of control
T/C [11]: 194 % of control
T/C (dose: 2.0 mg/kg/injection, schedule: Q04DX003 (ip), vehicle: saline): 164 % of control
T/C (dose: 2.5 mg/kg/injection, schedule: Q04DX003 (ip), vehicle: saline): 182 % of control
T/C (dose: 4.0 mg/kg/injection, schedule: Q01DX009 (ip), vehicle: saline with Tween-80): 387 % of control
T/C (dose: 4.0 mg/kg/injection, schedule: Q04DX003 (ip), vehicle: saline): 204 % of control
T/C (dose: 5.0 mg/kg/injection, schedule: Q04DX003 (ip), vehicle: saline): 217 % of control
T/C (dose: 7.31 mg/kg/injection, schedule: Q01DX001 (ip), vehicle: other): 172 % of control
T/C (dose: 7.5 mg/kg/injection, schedule: Q04DX003 (ip), vehicle: saline): 230 % of control and 240 % of control
T/C (dose: 9.75 mg/kg/injection, schedule: Q01DX001 (ip), vehicle: other): 157 % of control
T/C (dose: 10.0 mg/kg/injection, schedule: Q04DX003 (ip), vehicle: saline): 79 % of control
T/C (dose: 13.0 mg/kg/injection, schedule: Q01DX001 (ip), vehicle: other): 173 % of control
